Test results published in publication PMC9374667 (Communications Biology, 2022).
Where “and” joins values, the source holds several entries; their conditions need not be identical. Equal entries are not always repeated.

How the values were obtained:
[1] = test system: db/db mice; assay: Weekly fasting glucose levels of db/db mice; assay type: in vivo; conditions: for Weekly fasting glucose levels of db/db mice (Figure 5a): BBR 150mg/kg, individual mice 1-10, in mmol/L
Method: (§1) The lean wild type control and the db/db control mice were given equal vehicle volume (0.5% CMC-Na solution). All mice were monitored for food intake, body weight, and fasting blood glucose during the 35-day trial. Glucose tolerance test (GTT) and insulin resistance test (ITT) were performed at 4 and 5 weeks of treatment, respectively. Metabolic analysis was performed at 5 weeks of treatment. At the end of the study, blood samples were taken through the retroorbital venous sinus of mice, fat depots (brown fat, inguinal subcutaneous fat, epididymal fat, perirenal fat and mesenteric fat depot) were dissected, weighed, and immediately frozen in liquid nitrogen and stored at −80 °C until required. Weight of fat depots are expressed in percentage (fat depots weight /bodyweight * 100%).

[2] = test system: db/db mice; assay: Fasting serum insulin levels (ELISA); assay type: in vivo; set-up: insulin level (Figure 5b): unit not given here; conditions: db/db mice
Method: Mice were fasted for 4 h for insulin resistance test and intraperitoneally injected with 1 unit/kg of insulin. Blood glucose levels were measured from the tail vein blood at 0, 15, 30, 45, 60, 90, and 120 min after injection. Plasma insulin levels were measured using an ultrasensitive mouse insulin ELISA kit (Nanjing Jiancheng Bioengineering Institute, Nanjing, China).

[3] = test system: 3T3-L1 adipocytes; assay: Oil Red O staining and lipid quantification; assay type: cell-based, Murine; conditions: Figure 7b; 10μM BBR; replicates;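 further: treatment added on day 8 of adipocyte differentiation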
Method: Meanwhile, we conducted in vitro experiments to validate the role of BJ in adipocytes. […] These findings were similar to the results in vivo.
Murine 3T3-L1 preadipocytes were the kind gift of Prof. Wenbin Shang and Prof. Xizhong Yu (Nanjing University of Chinese Medicine, China). Cells were cultured in Dulbecco’s modified Eagle’s medium (DMEM) supplemented with 10% (vol/vol) fetal bovine serum (FBS), 1% (vol/vol) penicillin/streptomycin in an incubator at 37 °C and 5% CO2 (until confluent). Two days after the preadipocytes reached 100% confluency (designated day 0), the cells were cultured in DMEM with 10% FBS supplemented with IBMX (0.5 mM final concentration), DEX (1 μM final concentration), and insulin (10 μg/ml final concentration) for 3 days (days 0–3). Then the cells were cultured in a medium containing insulin (10 μg/ml final concentration) for another 3 days (days 3–6).
Lipid accumulation in differentiated adipocytes was observed by Oil Red O staining. The differentiated 3T3-L1 adipocytes were washed with PBS for 3 times and fixed with 4% paraformaldehyde for 30 min at room temperature. The fixed 3T3-L1 adipocytes were washed with PBS for 3 times and stained with Oil Red O solution at room temperature for 60 min. Stained lipid droplets were photographed and then eluted with 100% isopropanol stained Oil Red O. Finally, the optical density (OD) value of the eluent was measured at 510 nm wavelength with a microplate reader.

[4] = test system: db/db mice; assay: Body weight of db/db mice during 35-day treatment; assay type: in vivo; conditions: db/db mice
Method: as §1

[5] = test system: cAMP; assay: cAMP levels in eWAT of db/db mice (isoproterenol); assay type: in vivo; set-up: cAMP levels in eWAT (Figure 4l): unit not given here
Method: The epididymal adipose tissue was dissected, the fresh adipose tissue was weighed and rapidly rinsed with PBS. The adipose tissue was cut and incubated with isoproterenol (10 μM) for 2 h, and homogenized in a cold cleavage buffer to prepare the adipose tissue homogenate. Then the homogenate was centrifuged at 12,000 × g at 4 °C for 15 min, and the supernatant was collected. For 3T3-L1 adipocytes, the adipocytes were treated with or without 50 ng/ml TNF-α or 3 μg IKKε plasmid or 4 μM siIKKε for 24 h and then treated with or without 10 μM ISO or 10 μM BJ for 24 h. Then the cells were lysed in a petri dish, scraped off, and centrifuged at 12,000 × g at 4 °C for 15 min before the supernatant was collected.
Glycerol or cAMP content in adipose tissue and 3T3-L1 adipocytes was determined by a glycerol assay kit (Nanjing Jiancheng Bioengineering Institute, Nanjing, China) or a mouse cAMP assay kit (Nanjing Jiancheng Bioengineering Institute, Nanjing, China). And concentrations were further standardized according to protein concentration.

[6] = test system: db/db mice; assay: Serum CHO, TG, FFA, LDL-C, HDL-C and ADPN in the fasted state; assay type: in vivo; set-up: FFA (Figure 4g) / LDL-C (Figure 4h) / HDL-C (Figure 4i) / ADPN (Figure 4j): unit not given here; conditions: db/db mice
Method: The serum was collected by centrifugation at 3000 × g at 4 °C for 15 min and stored at −80 °C until analysis. TG, TC, LDL-C, HDL-C, and FFA were routinely tested on a Chemray 240 automatic biochemical analyzer (Chemray 240, Shenzhen, China). Serum levels of mouse adiponectin, interleukin6 (IL-6), tumor necrosis factor-α (TNF-α) were measured using commercial enzyme-linked immunosorbent assay (ELISA) kits (Nanjing Jiancheng Bioengineering Institute, Nanjing, China) and according to the manufacturer’s instructions. The levels of IL-6, TNF-α in 3T3-L1 adipocyte culture supernatant were also detected by ELISA.

[7] = BBR 150mg/kg, serum, individual mice 1-6
[8] = 150 mg/kg, fasted state, individual mice
[9] = vs vehicle, BJ 75 and 150 mg/kg, BBR 150 mg/kg, Ibu 150 mg/kg

COc1ccc2cc3[n+](cc2c1OC)CCc1cc2c(cc1-3)OCO2 [BBR, Berberine chloride dihydrate]
Weekly fasting glucose levels of db/db mice (Figure 5a) ([1]; 1st of 6 weekly columns (time not given)): 17.4 and 11.5 and 21.8 and 12.0 and 11.7 and 15.7 and 14.9 and 17.1
Weekly fasting glucose levels of db/db mice (Figure 5a) ([1]; 2nd of 6 weekly columns (time not given)): 26.2 and 16.0 and 21.2 and 18.4 and 15.0 and 21.3 and 21.6 and 19.3 and 16.9
Weekly fasting glucose levels of db/db mice (Figure 5a) ([1]; 3rd of 6 weekly columns (time not given)): 23.6 and 18.7 and 19.5 and 20.6 and 21.5 and 23.7 and 13.1 and 20.7 and 20.5
Weekly fasting glucose levels of db/db mice (Figure 5a) ([1]; 4th of 6 weekly (time not given)): 19.5 and 14.4 and 15.7 and 19.0 and 17.0 and 19.2 and 9.3 and 10.1 and 18.3 and 13.0
Weekly fasting glucose levels of db/db mice (Figure 5a) ([1]; 5th of 6 weekly (time not given)): 18.5 and 10.1 and 10.6 and 12.8 and 13.2 and 9.4 and 10.5 and 8.4 and 10.7 and 13.3
Weekly fasting glucose levels of db/db mice (Figure 5a) ([1]; 6th of 6 weekly (time not given)): 15.5 and 9.3 and 11.4 and 15.8 and 10.5 and 10.2 and 10.0 and 9.8 and 13.5
Fasting blood glucose level at the end of the treatment ([1]; db/db mice, 150 mg/kg, vehicle rose from 14.4 ± 3.4 to 23.9 ± 3.4): 11.6 ± 2.4 mmol/L
Blood (serum) glucose levels compared with vehicle ([1]; db/db mice, BJ 75 and 150 mg/kg, BBR 150 mg/kg, Ibu 150 mg/kg): slowed the increase in glucose levels
insulin level (Figure 5b) ([2]; BBR 150mg/kg, fasting serum, individual mice 1-6): 14.8249 and 14.5179 and 14.1979 and 10.7342 and 12.3345 and 12.7422
Fasting serum insulin levels ([2]; 150 mg/kg, 35 days of treatment, vs vehicle): did not produce significant effects
Oil Red O staining of differentiated 3T3-L1 adipocytes spectrophotometric analysis [3]: 0.6307 O.D. and 0.6591 O.D. and 0.6319 O.D. and 0.6294 O.D. and 0.6584 O.D. and 0.6194 O.D.
Body weight ([4]; 150 mg/kg gavage once per day, day 1, individual mice, 150 mg/kg): 41 grams and 40 grams and 42 grams and 36 grams and 39 grams and 37 grams
Body weight ([4]; 150 mg/kg gavage once per day, day 4, individual mice, 150 mg/kg): 40 grams and 41 grams and 37 grams and 39 grams
Body weight ([4]; 150 mg/kg gavage once per day, day 7, individual mice, 150 mg/kg): 42 grams and 43 grams and 37 grams and 38 grams and 39 grams and 41 grams
Body weight ([4]; 150 mg/kg gavage once per day, day 10, individual mice, 150 mg/kg): 42 grams and 43 grams and 44 grams and 38 grams and 39 grams and 40 grams
Body weight ([4]; 150 mg/kg gavage once per day, day 13, individual mice, 150 mg/kg): 43 grams and 44 grams and 38 grams and 39 grams and 41 grams
Body weight ([4]; 150 mg/kg gavage once per day, day 16, individual mice, 150 mg/kg): 45 grams and 43 grams and 44 grams and 38 grams and 39 grams and 42 grams and 41 grams
Body weight ([4]; 150 mg/kg gavage once per day, day 19, individual mice, 150 mg/kg): 44 grams and 43 grams and 37 grams and 40 grams and 42 grams
Body weight ([4]; 150 mg/kg gavage once per day, day 22, individual mice, 150 mg/kg): 42 grams and 45 grams and 41 grams and 39 grams and 43 grams and 44 grams
Body weight ([4]; 150 mg/kg gavage once per day, day 25, individual mice, 150 mg/kg): 42 grams and 46 grams and 43 grams and 38 grams and 39 grams and 44 grams and 40 grams and 45 grams
Body weight ([4]; 150 mg/kg gavage once per day, day 28, individual mice, 150 mg/kg): 44 grams and 47 grams and 43 grams and 39 grams and 45 grams and 46 grams
Body weight ([4]; 150 mg/kg gavage once per day, day 31, individual mice, 150 mg/kg): 46 grams and 48 grams and 49 grams and 41 grams and 42 grams and 47 grams and 43 grams and 45 grams
Body weight ([4]; 150 mg/kg gavage once per day, day 34, individual mice, 150 mg/kg): 48 grams and 46 grams and 50 grams and 51 grams and 43 grams and 47 grams and 45 grams
Average body weight gain ([4]; 150 mg/kg gavage once per day, day 35, mean ± SD): 7.6 ± 0.8 g
Body weight gain in 5 weeks ([4]; 150 mg/kg gavage once per day, individual mice, 150 mg/kg): 8 grams and 7 grams and 6 grams and 9 grams
Body weight compared with vehicle ([4]; 5 weeks, BJ 75 and 150 mg/kg, BBR 150 mg/kg, Ibu 150 mg/kg): lower body weight than the db/db mice treated with the vehicle
cAMP levels in eWAT ([5]; db/db mice, isoproterenol stimulation): increased the cAMP levels
cAMP levels in eWAT (Figure 4l) ([5]; db/db+ISO+BBR 150mg/kg, individual samples 1-6): 0.3703 and 0.3189 and 0.32 and 0.3561 and 0.3523 and 0.3716
ADPN (Figure 4j) [6, 7]: 531.25 and 533.16 and 569.22 and 520.27 and 517.83 and 573.58
FFA (Figure 4g) [6, 7]: 783.9 and 765.7 and 789.7 and 738.2 and 717.7 and 741.1
HDL-C (Figure 4i) [6, 7]: 2.5 and 2.8 and 2.4 and 2.7 and 3
LDL-C (Figure 4h) [6, 7]: 4.79 and 4.96 and 3.72 and 5.17 and 5.15
Serum CHO [6, 8]: 4 mmol/L and 4.5 mmol/L and 5.2 mmol/L and 4.6 mmol/L and 4.2 mmol/L
Serum TG [6, 8]: 1.66 mmol/L and 1.22 mmol/L and 1.5 mmol/L and 1 mmol/L and 0.96 mmol/L and 1.18 mmol/L
Serum levels of CHO, TG, FFA and LDL-C [6, 9]: decreased
Serum levels of HDL-C and adiponectin (ADPN) [6, 9]: increased
